Patent US10131652B2, “Pyrimidinyloxy benzene derivatives as herbicides” (E. I. DU PONT DE NEMOURS AND COMPANY, priority 2014, dated 2018)
Read-outs that look alike come from different tables or passages of the source.

What was measured:
Experiment in all cases: Test F pre-/postemergence plant response
Assay type in all cases: in vivo
[1] = tested on: surinam grass (Brachiaria decumbens); conditions: Urochloa decumbens, pre-emergence, scale 0 to 100, read-out: Plant response rating, Surinam Grass
Method in brief: (§1)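 Herbicidal effect judged by eye against controls, scored 0–100 (complete control = 100). Applications: pre-emergence onto seeded silt loam, post-emergence onto 2–18 cm seedlings; greenhouse, 14–21 days.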

[2] = tested on: dayflower (Virginia (VA) dayflower, Commelina virginica); conditions: Commelina virginica, scale 0 to 100, read-out: Plant response rating, Dayflower, VA
Method in brief: as §1

[3] = tested on: barnyardgrass (Echinochloa crus-galli); conditions: Echinochloa crus-galli, scale 0 to 100, read-out: Plant response rating, Barnyardgrass
Method in brief: as §1

[4] = tested on: johnsongrass (Sorghum halepense); conditions: Sorghum halepense, pre-emergence, scale 0 to 100, read-out: Plant response rating, Johnsongrass
Method in brief: as §1

[5] = tested on: sandbur (southern sandbur, Cenchrus echinatus); conditions: Cenchrus echinatus, scale 0 to 100, read-out: Plant response rating, Sandbur
Method in brief: as §1

[6] = tested on: morningglory (Ipomoea coccinea); conditions: Ipomoea, pre-emergence, scale 0 to 100, read-out: Plant response rating, Morningglory
Method in brief: as §1

[7] = tested on: giant foxtail (Setaria faberii); conditions: Setaria faberi, pre-emergence, scale 0 to 100, read-out: Plant response rating, Foxtail, Giant
Method in brief: as §1

[8] = tested on: green foxtail (Setaria viridis); conditions: Setaria viridis, pre-emergence, Preemergence, scale 0 to 100, read-out: Plant response rating, Foxtail, Green
Method in brief: as §1

[9] = tested on: large (Lg) crabgrass (Digitaria sanguinalis); conditions: Digitaria sanguinalis, pre-emergence, scale 0 to 100, read-out: Plant response rating, Crabgrass, Large
Method in brief: as §1

[10] = tested on: fall panicum (Panicum dichotomiflorum); conditions: Panicum dichotomiflorum, scale 0 to 100, read-out: Plant response rating, Panicum, Fall
Method in brief: as §1

[11] = tested on: corn (Zea mays); conditions: Zea mays, scale 0 to 100
Method in brief: as §1

[12] = tested on: ragweed (common ragweed, Ambrosia elatior); conditions: Ambrosia artemisiifolia, scale 0 to 100, read-out: Plant response rating, Ragweed
Method in brief: as §1

[13] = tested on: palmer pigweed (Amaranthus palmeri); conditions: Amaranthus palmeri, scale 0 to 100, read-out: Plant response rating, Pigweed, Palmer
Method in brief: as §1

[14] = tested on: soybean (Glycine max); conditions: Glycine max, scale 0 to 100, read-out: Plant response rating, Soybean
Method in brief: as §1

[15] = tested on: waterhemp (common waterhemp, Amaranthus rudis); conditions: Amaranthus tuberculatus, scale 0 to 100, read-out: Plant response rating, Waterhemp
Method in brief: as §1

[16] = tested on: arrowleaf sida (Sida rhombifolia); conditions: Sida rhombifolia, scale 0 to 100, read-out: Plant response rating, Arrowleaf Sida
Method in brief: as §1

[17] = post-emergence, 16 g ai/ha Postemergence
[18] = post-emergence, 31 g ai/ha Postemergence
[19] = post-emergence, 62 g ai/ha Postemergence
[20] = post-emergence, 125 g ai/ha Postemergence
[21] = pre-emergence, 16 g ai/ha Preemergence
[22] = pre-emergence, 31 g ai/ha Preemergence
[23] = pre-emergence, 62 g ai/ha Preemergence
[24] = pre-emergence, 125 g ai/ha Preemergence

Fc1cccc(Oc2ncc(Cl)cn2)c1-c1cc(C(F)F)no1 [Compound 144, 5-chloro-2-[2-[3-(difluoromethyl)-5-isoxazolyl]-3-fluorophenoxy]pyrimidine]
10%: pest or weed control at 16 g/ha [3, 17] | pest or weed control at 16 g/ha [5, 17] | pest or weed control at 31 g/ha [5, 22] | Corn plant response rating (crop injury, 0 = no effect, 100 = complete kill) at 16 g/ha [11, 17] | Corn plant response rating (crop injury, 0 = no effect, 100 = complete kill) at 62 g/ha [11, 19] | Corn plant response rating (crop injury, 0 = no effect, 100 = complete kill) at 125 g/ha [11, 20] | plant injury at 31 g/ha [14, 22]
95%: pest or weed control at 125 g/ha [2, 24] | pest or weed control at 125 g/ha [5, 24] | pest or weed control at 125 g/ha ([6]; 125 g ai/ha Preemergence) | pest or weed control at 62 g/ha ([7]; 62 g ai/ha Preemergence) | pest or weed control at 31 g/ha ([8]; 31 g ai/ha) | pest or weed control at 16 g/ha [10, 21] | pest or weed control at 62 g/ha ([12]; pre-emergence, Preemergence) | plant injury at 31 g/ha [14, 18] | plant injury at 125 g/ha [14, 20] | pest or weed control at 16 g/ha [16, 21]
15%: pest or weed control at 31 g/ha [5, 18] | pest or weed control at 16 g/ha ([7]; 16 g ai/ha Preemergence)
65%: pest or weed control at 62 g/ha ([6]; Preemergence) | plant injury at 16 g/ha [14, 17]
0%: pest or weed control at 16 g/ha ([1]; 16 g ai/ha Preemergence) | pest or weed control at 16 g/ha [2, 21] | pest or weed control at 16 g/ha [3, 21] | pest or weed control at 16 g/ha ([4]; 16 g ai/ha Preemergence) | pest or weed control at 31 g/ha ([4]; 31 g ai/ha Preemergence) | pest or weed control at 16 g/ha [5, 21] | pest or weed control at 16 g/ha ([6]; 16 g ai/ha Preemergence) | pest or weed control at 31 g/ha ([6]; 31 g ai/ha Preemergence) | Corn plant response rating (crop injury, 0 = no effect, 100 = complete kill) at 16 g/ha [11, 21] | Corn plant response rating (crop injury, 0 = no effect, 100 = complete kill) at 31 g/ha [11, 22] | pest or weed control at 16 g/ha [12, 21] | pest or weed control at 31 g/ha [12, 22]
35%: pest or weed control at 62 g/ha [10, 19] | Corn plant response rating (crop injury, 0 = no effect, 100 = complete kill) at 125 g/ha [11, 24]
90%: pest or weed control at 31 g/ha ([7]; 31 g ai/ha Preemergence) | pest or weed control at 125 g/ha [12, 20] | pest or weed control at 16 g/ha [13, 17]
75%: pest or weed control at 31 g/ha ([1]; 31 g ai/ha Preemergence) | pest or weed control at 62 g/ha ([1]; Preemergence) | pest or weed control at 125 g/ha [3, 20] | plant injury at 125 g/ha [14, 24]
60%: pest or weed control at 62 g/ha [2, 19] | pest or weed control at 125 g/ha [10, 20]
30%: pest or weed control at 31 g/ha [2, 22] | pest or weed control at 31 g/ha [3, 18] | pest or weed control at 62 g/ha ([4]; Preemergence) | pest or weed control at 31 g/ha [10, 18]
98%: pest or weed control at 62 g/ha [8] | plant injury at 62 g/ha [14, 19] | pest or weed control at 16 g/ha [15, 21]
20%: pest or weed control at 31 g/ha [3, 22] | pest or weed control at 62 g/ha [5, 19] | pest or weed control at 125 g/ha [5, 20]
70%: pest or weed control at 62 g/ha [3, 23] | pest or weed control at 125 g/ha ([4]; 125 g ai/ha Preemergence)
85%: pest or weed control at 125 g/ha [2, 20] | pest or weed control at 62 g/ha [2, 23] | pest or weed control at 62 g/ha [12, 19] | pest or weed control at 125 g/ha [12, 24]
100%: pest or weed control at 125 g/ha [3, 24] | pest or weed control at 125 g/ha ([7]; 125 g ai/ha Preemergence) | pest or weed control at 125 g/ha ([8]; 125 g ai/ha) | pest or weed control at 31 g/ha ([9]; 31 g ai/ha Preemergence) | pest or weed control at 62 g/ha ([9]; 62 g ai/ha Preemergence) | pest or weed control at 125 g/ha ([9]; 125 g ai/ha Preemergence) | pest or weed control at 31 g/ha [10, 22] | pest or weed control at 125 g/ha [10, 24] | pest or weed control at 62 g/ha ([10]; pre-emergence, Preemergence) | pest or weed control at 31 g/ha [13, 18] | pest or weed control at 62 g/ha [13, 19] | pest or weed control at 125 g/ha [13, 20] | pest or weed control at 16 g/ha [13, 21] | pest or weed control at 31 g/ha [13, 22] | pest or weed control at 125 g/ha [13, 24] | pest or weed control at 62 g/ha ([13]; pre-emergence, Preemergence) | pest or weed control at 16 g/ha [15, 17] | pest or weed control at 31 g/ha [15, 18] | pest or weed control at 62 g/ha [15, 19] | pest or weed control at 125 g/ha [15, 20] | pest or weed control at 31 g/ha [15, 22] | pest or weed control at 125 g/ha [15, 24] | pest or weed control at 62 g/ha ([15]; pre-emergence, Preemergence) | pest or weed control at 16 g/ha [16, 17] | pest or weed control at 31 g/ha [16, 18] | pest or weed control at 62 g/ha [16, 19] | pest or weed control at 125 g/ha [16, 20] | pest or weed control at 31 g/ha [16, 22] | pest or weed control at 62 g/ha [16, 23] | pest or weed control at 125 g/ha [16, 24]
50%: pest or weed control at 16 g/ha [2, 17] | pest or weed control at 31 g/ha [2, 18] | pest or weed control at 62 g/ha [3, 19] | pest or weed control at 62 g/ha ([5]; pre-emergence, Preemergence) | pest or weed control at 16 g/ha [12, 17] | pest or weed control at 31 g/ha [12, 18]
25%: pest or weed control at 16 g/ha ([8]; 16 g ai/ha) | pest or weed control at 16 g/ha [10, 17]
40%: Corn plant response rating (crop injury, 0 = no effect, 100 = complete kill) at 62 g/ha [11, 23] | plant injury at 62 g/ha ([14]; pre-emergence, Preemergence)
5%: Corn plant response rating (crop injury, 0 = no effect, 100 = complete kill) at 31 g/ha [11, 18]
80%: pest or weed control at 125 g/ha ([1]; 125 g ai/ha Preemergence) | pest or weed control at 16 g/ha ([9]; 16 g ai/ha Preemergence)
